Source: the NIST ThermoML archive (doi:10.1016/j.fluid.2014.07.005)
Numbers after ± are expanded uncertainties.

Assay: mn = molality of the nth substance listed, in mol/kg
Conditions: 298.15 K, 101 kPa, Liquid, Rudolph densimeter

Q: For `O=[N+]([O-])[O-].O=[N+]([O-])[O-].[Mg+2]` [magnesium nitrate] + CO, which mass density (m1 = 0.0067) is on record?
A: 787.75 ± 0.19 kg/m3

Q: And the mass density (m1 = 0.0135)?
A: 788.44 ± 0.19 kg/m3

Q: What about the mass density (m1 = 0.0203) of the same compound?
A: 789.09 ± 0.19 kg/m3

Q: And the mass density (m1 = 0.0271)?
A: 789.77 ± 0.19 kg/m3

Q: And the mass density (m1 = 0.0339)?
A: 790.43 ± 0.19 kg/m3

Q: And the mass density (m1 = 0.0373)?
A: 790.75 ± 0.19 kg/m3

Q: What about the mass density (m1 = 0.0407) of the same compound?
A: 791.07 ± 0.19 kg/m3

Q: And the mass density (m1 = 0.0441)?
A: 791.39 ± 0.19 kg/m3

Q: And the mass density (m1 = 0.0475)?
A: 791.72 ± 0.19 kg/m3

Q: What about the mass density (m1 = 0.051) of the same compound?
A: 792.03 ± 0.19 kg/m3

Q: What about the mass density (m1 = 0.0544) of the same compound?
A: 792.33 ± 0.19 kg/m3

Q: What about the mass density (m1 = 0.0578) of the same compound?
A: 792.66 ± 0.19 kg/m3

Q: And the mass density (m1 = 0.0612)?
A: 792.95 ± 0.19 kg/m3

Q: And the mass density (m1 = 0.0647)?
A: 793.26 ± 0.19 kg/m3

Q: And the mass density (m1 = 0.0681)?
A: 793.56 ± 0.19 kg/m3

Q: Which mass density (m1 = 0.0053) does the source give for `O=[N+]([O-])[O-].O=[N+]([O-])[O-].[Zn+2]` [nitric acid, zinc salt] + CO here?
A: 787.73 ± 0.19 kg/m3

Q: And the mass density (m1 = 0.0106)?
A: 788.43 ± 0.19 kg/m3

Q: What about the mass density (m1 = 0.0159) of the same compound?
A: 789.11 ± 0.19 kg/m3

Q: And the mass density (m1 = 0.0212)?
A: 789.81 ± 0.19 kg/m3

Q: What about the mass density (m1 = 0.0265) of the same compound?
A: 790.47 ± 0.19 kg/m3

Q: And the mass density (m1 = 0.0292)?
A: 790.79 ± 0.19 kg/m3

Q: And the mass density (m1 = 0.0319)?
A: 791.13 ± 0.19 kg/m3

Q: And the mass density (m1 = 0.0346)?
A: 791.46 ± 0.19 kg/m3

Q: What about the mass density (m1 = 0.0372) of the same compound?
A: 791.79 ± 0.19 kg/m3

Q: What about the mass density (m1 = 0.0399) of the same compound?
A: 792.11 ± 0.19 kg/m3

Q: What about the mass density (m1 = 0.0426) of the same compound?
A: 792.44 ± 0.19 kg/m3

Q: What about the mass density (m1 = 0.0453) of the same compound?
A: 792.76 ± 0.19 kg/m3

Q: And the mass density (m1 = 0.048)?
A: 793.07 ± 0.19 kg/m3

Q: What about the mass density (m1 = 0.0507) of the same compound?
A: 793.39 ± 0.19 kg/m3

Q: What about the mass density (m1 = 0.0533) of the same compound?
A: 793.72 ± 0.19 kg/m3

Q: And the mass density (m1 = 0.0804)?
A: 796.87 ± 0.19 kg/m3

Q: With `[Cl-].[Cl-].[Mg+2]` [magnesium chloride] + CO as the compound, how does the mass density (m1 = 0.0105) read?
A: 788.19 ± 0.19 kg/m3

Q: And the mass density (m1 = 0.021)?
A: 789.37 ± 0.19 kg/m3

Q: And the mass density (m1 = 0.0316)?
A: 790.72 ± 0.19 kg/m3

Q: What about the mass density (m1 = 0.0422) of the same compound?
A: 791.97 ± 0.19 kg/m3

Q: What about the mass density (m1 = 0.0528) of the same compound?
A: 793.43 ± 0.19 kg/m3

Q: And the mass density (m1 = 0.0581)?
A: 794.28 ± 0.2 kg/m3

Q: What about the mass density (m1 = 0.0634) of the same compound?
A: 795.32 ± 0.2 kg/m3

Q: What about the mass density (m1 = 0.0687) of the same compound?
A: 796.28 ± 0.19 kg/m3

Q: What about the mass density (m1 = 0.074) of the same compound?
A: 796.94 ± 0.19 kg/m3

Q: What about the mass density (m1 = 0.0794) of the same compound?
A: 797.82 ± 0.2 kg/m3

Q: And the mass density (m1 = 0.0847)?
A: 798.59 ± 0.2 kg/m3

Q: What about the mass density (m1 = 0.09) of the same compound?
A: 799.4 ± 0.2 kg/m3

Q: What about the mass density (m1 = 0.0954) of the same compound?
A: 800.16 ± 0.2 kg/m3
